# Literature values in patent US9476892B2, “Composition and method for measuring thallium influx and efflux” (priority 2007, dated 2016).
# Details: background statement, poorly soluble
compound,measurement,value
[Cl][Tl] [thallium chloride],concentration at which thallium chloride precipitates out of solution,≥ 4500 µM
